Read-outs that look alike come from different tables or passages of the source.
Assays:
[1] = Maximum non-lethal dose (NLD), single intravenous dose in mice; type: in vivo, Swiss-Webster male mice; conditions: test compounds as aspartate salts in 5% mannitol, AmB as FUNGIZONE
Method in brief: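 Groups of four male Swiss-Webster mice received one intravenous dose of aspartate salt in 5% mannitol/water, freshly prepared. Doses were raised or lowered after each round until the maximum non-lethal dose was found.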

C. albicans = assay: 5 day kidney bioburden evaluation in immunocompetent mice challenged with C. albicans; type: in vivo, Swiss-Webster mice; conditions: for effective in % of mice: greater than 2 log10 reduction in kidney CFU
Description: (§1) A variety of the compounds synthesized as described in Section 5, supra, were tested in various in vivo assays, as described below. The results of the various assays are provided in TABLE 3, presented at the end of this section. In all of the in vivo assays described, the test compounds, in the form of the aspartate salts, were formulated in an aqueous vehicle (5% mannitol in sterile water; OSMITROL, Baxter Healthcare, Deerfield, Ill.), followed by appropriate dilutions. The formulations were prepared fresh before dosing.
(§2) AmB and AME were also tested for comparison. For AmB, the commercially available FUNGIZONE (Bristol-Meyers Squibb Co.) was used. Reported values are based upon the weight of the AmB active ingredient, not on the basis of the weight of the FUNGIZONE powder. AME was formulated in OSMITROL as described for the test compounds.
Various polyene macrolide amide derivatives of the invention were evaluated for their protective effect when administered intraperitoneally once daily for 5 days to immunocompetent mice challenged with live C. albicans.
C. albicans was grown on Sabouraud dextrose agar (SDA) plates for 48 hr. Colonies were harvested and washed twice by centrifugation in phosphate-buffered saline (PBS). The washed pellets were resuspended in PBS and diluted to achieve the desired number of fungi per milliliter. A portion of the inoculum was plated on SDA plates to determine the colony-forming units (CFU) per milliliter.
Swiss-Webster mice (Simonsen Laboratories, Gilroy, Calif.) were administered by intravenous injection a single inoculum (0.2 mL) containing as estimated 2.0×10^5 CFU of C. albicans. The day of inoculation was designated as study day 0. Beginning three days after injection, mice were treated intraperitoneally with vehicle alone or formulated test compound once daily for 5 consecutive days.
The mice were observed daily from study day 0 through study day 10 (3 days after the last dose). Mice found dead or euthanized in extremis were removed from the study without further processing. Surviving mice were euthanized by inhalation of CO2 on study day 10 and both kidneys from each mouse were removed. Each pair of removed kidneys was homogenized in 3 mL of ice-cold PBS containing 10% glycerol. A portion of each homogenate was used to determine log10 CFU per kidney using SDA plates (48 hours of incubation at 30° C.). Kidney log10 CFU data were analyzed using a t-test. The criterion for a statistically significant response was set at p<0.01.
For comparison, the results for AmB and AME are also provided. Efficacy was defined for individual animals as a greater than 2 log10 reduction in kidney CFU relative to the mean vehicle control value.

[2] = Two week range-finding toxicity study in mice; type: in vivo, CD-1 mice; conditions: both sexes, CD-1, mouse, in vivo, iv, intravenous once daily on days 1 to 5 and 8 to 12
Description: as §1, §2
Various polyene macrolide amide derivatives of the invention were evaluated to characterize their potential toxicity when administered subchronically by intravenous injection.
CD-1® mice (Charles River Laboratories, Portage, Mich.) were acclimated to laboratory conditions for at least 5 days before the start of dosing. During the acclimation period, the general condition of the mice was evaluated, and those considered healthy were used. The mice were randomly assigned to treatment groups using a stratified body weight regimen. Each treatment group consisted of 3 male and 3 female mice. The mice were housed in a room with a controlled environment and provided rodent chow and water ad libitum.
On the first day of dosing, the mice were approximately 7 to 9 weeks old and weighed 22 to 30 g. Doses were administered by intravenous injection once daily on study days 1 to 5 and 8 to 12. Dosages were selected based upon data from efficacy and toxicology studies, and ranged from 1.25 to 30 mg/kg/day. Clinical observations were recorded 0.5 hr after dosing on days 1, 3, 5, 8, 10, 12 and 15, and on any day a change was observed. Body weights were recorded prior to dosing and on study days 8 and 12, and on study day 15 at the completion of the in-life phase of the study.
Animals that were found in a moribund/deteriorating clinical state were euthanized (animal designated killed in extremis) by inhalation of CO2. The day of death for any animal found dead or killed in extremis was recorded. Any animal that died prematurely was removed from the study without further processing.
One day after completion of dosing (study day 16), all surviving mice were euthanized by inhalation of CO2. Their kidneys were preserved for histopathologic examination. The maximum no-observed-adverse-effect level (NOAEL) was determined on the basis of clinical and histopathologic findings. The values for AmB and AME are provided for comparison.

[3] = Ascending single-dose nephrotoxicity study in rabbits; type: in vivo, Female New Zealand white rabbits; conditions: female, New Zealand white, rabbit, in vivo, ascending single intravenous infusion doses, urine volume, BUN, creatinine, read-out: NOAEL acute rabbit
Description: as §1
AmB and AME were also tested for comparison. For AmB, the commercially available FUNGIZONE (Bristol-Meyers Squibb Co.) was used. […]
Various polyene macrolide amide derivatives of the invention were evaluated to determine the intravenous dose of administered compound that produces nephrotoxicity in rabbits. Nephrotoxicity was monitored by measuring urine volume and blood urine nitrogen (BUN) and creatinine. […]
Ascending single doses were administered by intravenous infusion into an ear vein at a rate of 0.6 mL/min. […] Body weights were recorded before each dose, as well as 2 days after the last dose. Blood samples were collected from the rabbits two days prior to the first dose (study day −2) and approximately 24 hr after each dose and analyzed for BUN and creatinine. […]

## C[C@@H]1[C@H](O)[C@@H](C)/C=C/C=C/C=C/C=C/C=C/C=C/C=C/[C@H](O[C@@H]2O[C@H](C)[C@@H](O)[C@H](N)[C@@H]2O)C[C@@H]2O[C@](O)(C[C@@H](O)C[C@@H](O)[C@H](O)CC[C@@H](O)C[C@@H](O)CC(=O)O[C@H]1C)C[C@H](O)[C@H]2C(=O)O [AMB, amphotericin B, reference compound]
[1]
  NLD acute mice: 1.5 mg/kg
C. albicans; 2 mg/kg/day intraperitoneally
  effective in % of mice: 20%
C. albicans; 4 mg/kg/day intraperitoneally
  effective in % of mice: 60%
C. albicans; 8 mg/kg/day intraperitoneally
  effective in % of mice: 100%
C. albicans; 16 mg/kg/day intraperitoneally
  effective in % of mice: 78%
C. albicans; Candida albicans, ip, 120 h, intraperitoneally once daily for 5 days, immunocompetent mice, C. albicans, 50% of animals with 2 log10 reduction in kidney CFU, read-out: ED50 mice 5 day
  ED50: 3 mg/kg
C. albicans; intraperitoneally, 5 day kidney bioburden model, calculated
  ED50: 3 mg/kg/day
[2]; clinical findings, read-out: NOAEL 2 week mice clinical
  NOAEL at 2 week: 0.5 mg/kg
[2]; histopathologic (kidney) findings, read-out: NOAEL 2 week mice histological
  NOAEL at 2 week: 0.85 mg/kg
[3]
  NOAEL: 0.375 mg/kg

Source: patent US6664241B2, “Water-soluble amide derivatives of polyene macrolides and preparation and uses thereof” (Micrologix Biotech Inc., priority 2000, dated 2003)
